Values of other authors as cited in US20050182074A1 (Pfizer Inc., priority 2004, published 2005).

Tests used:
[1] = AIDS patient on antiretroviral drugs, voriconazole added
[2] = steady state pharmacokinetics of voriconazole

Row | Compound | plasma concentration on addition of voriconazole [1] | effect on voriconazole exposure [2]
1 | CC(C)CN(C[C@@H](O)[C@H](Cc1ccccc1)NC(=O)O[C@H]1CCOC1)S(=O)(=O)c1ccc(N)cc1 [amprenavir] | elevated plasma concentrations | –
2 | Cc1ccnc2c1NC(=O)c1cccnc1N2C1CC1 [nevirapine] | elevated plasma concentrations | –
3 | COc1ccc2[nH]c([S+]([O-])Cc3ncc(C)c(OC)c3C)nc2c1 (stereo not drawn) [omeprazole] | – | no clinically relevant effect
